Where a chain is given by its changes, count along the chain named.
These compounds were tested against T1, AR protein (Homo sapiens, UniProt P10275, T878A) (assay: Degradation of AR protein in LNCaP cells (Western blot)). Conditions: LNCaP cells, compound 10 nM, 8 hours, Western blot grayscale, GAPDH internal reference; read-out: Degradation rates of the AR protein in LNCaP cells, 10 nM (%).
T1 construct: degradation activity of the compounds disclosed in the present disclosure on AR protein in LNCaP cells; host or cells: LNCaP FGC
T1 sequence (P10275 1-920 T878A): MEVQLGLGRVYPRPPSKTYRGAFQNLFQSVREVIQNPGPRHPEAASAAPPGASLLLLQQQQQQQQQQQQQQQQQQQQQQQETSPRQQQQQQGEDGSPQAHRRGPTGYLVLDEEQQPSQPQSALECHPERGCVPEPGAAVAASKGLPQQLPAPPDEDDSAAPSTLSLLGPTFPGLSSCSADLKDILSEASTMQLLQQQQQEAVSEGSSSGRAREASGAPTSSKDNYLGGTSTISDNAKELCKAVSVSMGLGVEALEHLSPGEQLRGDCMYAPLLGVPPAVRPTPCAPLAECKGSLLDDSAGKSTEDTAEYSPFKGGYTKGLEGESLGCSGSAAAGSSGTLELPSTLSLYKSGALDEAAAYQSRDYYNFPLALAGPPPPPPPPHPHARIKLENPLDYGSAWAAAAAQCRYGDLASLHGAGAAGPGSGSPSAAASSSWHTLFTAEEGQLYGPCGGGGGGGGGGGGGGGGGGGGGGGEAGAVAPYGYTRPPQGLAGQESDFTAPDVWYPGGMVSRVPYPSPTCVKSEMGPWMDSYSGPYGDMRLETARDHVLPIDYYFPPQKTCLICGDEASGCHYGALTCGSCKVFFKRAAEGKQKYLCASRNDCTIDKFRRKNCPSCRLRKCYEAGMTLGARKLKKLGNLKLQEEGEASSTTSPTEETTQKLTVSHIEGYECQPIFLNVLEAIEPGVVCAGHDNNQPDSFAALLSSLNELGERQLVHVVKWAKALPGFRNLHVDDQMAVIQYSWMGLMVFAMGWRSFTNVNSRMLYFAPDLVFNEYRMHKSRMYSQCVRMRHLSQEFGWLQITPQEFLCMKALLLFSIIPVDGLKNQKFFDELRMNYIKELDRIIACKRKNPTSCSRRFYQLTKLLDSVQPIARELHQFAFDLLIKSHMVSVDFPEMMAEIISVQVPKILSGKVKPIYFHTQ
Format: cell-based
Procedure, shortened: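 Percent AR degradation was derived from GAPDH-normalised Western blot band intensities (infrared detection) in LNCaP lysates.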

SMILES	inhibition at 0.01 µM
N#Cc1ccc(O[C@H]2CC[C@H](NC(=O)c3ccc(N4CC5(CCC(N6CCC7(CC6)COc6cc8c(cc6C7)C(=O)N(C6CCC(=O)NC6=O)C8=O)CC5)C4)nn3)CC2)cc1Cl (stereo partly drawn) [Compound 65]	36%
N#Cc1ccc(OC2CCC(NC(=O)c3ccc(N4CC5(CC(N6CCC7(CC6)COc6cc8c(cc6C7)C(=O)N(C6CCC(=O)NC6=O)C8=O)C5)C4)nn3)CC2)cc1Cl (stereo not drawn) [Compound 66]	72%
N#Cc1ccc(O[C@H]2CC[C@H](NC(=O)c3ccc(N4CCC(F)(CN5CCC6(CC5)COc5cc7c(cc5C6)C(=O)N(C5CCC(=O)NC5=O)C7=O)CC4)nn3)CC2)cc1Cl (stereo partly drawn) [Compound 67]	37%
COC1(CN2CCC3(CC2)COc2cc4c(cc2C3)C(=O)N(C2CCC(=O)NC2=O)C4=O)CCN(c2ccc(C(=O)NC3CCC(Oc4ccc(C#N)c(Cl)c4)CC3)nn2)CC1 (stereo not drawn) [Compound 69]	26%
N#Cc1ccc(O[C@H]2CC[C@H](NC(=O)c3ccc(N4CCC5(CC4)CC(N4CCC6(CC4)COc4cc7c(cc4C6)C(=O)N(C4CCC(=O)NC4=O)C7=O)C5)nn3)CC2)cc1Cl (stereo partly drawn) [Compound 71]	37%
N#Cc1ccc(O[C@H]2CC[C@H](NC(=O)c3ccc(N4CCC(CN5CCC6(CC5)COc5cc7c(cc5C6)C(=O)N(C5CCC(=O)NC5=O)C7=O)CC4)nn3)CC2)cc1Cl (stereo partly drawn) [Compound 72]	81%

Same assay, conditions: LNCaP cells, compound 100 nM, 8 hours, Western blot grayscale, GAPDH internal reference; read-out: Degradation rates of the AR protein in LNCaP cells, 100 nM (%)

SMILES	inhibition at 0.1 µM
N#Cc1ccc(O[C@H]2CC[C@H](NC(=O)c3ccc(N4CC5(CCC(N6CCC7(CC6)COc6cc8c(cc6C7)C(=O)N(C6CCC(=O)NC6=O)C8=O)CC5)C4)nn3)CC2)cc1Cl (stereo partly drawn) [Compound 65]	75%
N#Cc1ccc(OC2CCC(NC(=O)c3ccc(N4CC5(CC(N6CCC7(CC6)COc6cc8c(cc6C7)C(=O)N(C6CCC(=O)NC6=O)C8=O)C5)C4)nn3)CC2)cc1Cl (stereo not drawn) [Compound 66]	74%
N#Cc1ccc(O[C@H]2CC[C@H](NC(=O)c3ccc(N4CCC(F)(CN5CCC6(CC5)COc5cc7c(cc5C6)C(=O)N(C5CCC(=O)NC5=O)C7=O)CC4)nn3)CC2)cc1Cl (stereo partly drawn) [Compound 67]	60%
COC1(CN2CCC3(CC2)COc2cc4c(cc2C3)C(=O)N(C2CCC(=O)NC2=O)C4=O)CCN(c2ccc(C(=O)NC3CCC(Oc4ccc(C#N)c(Cl)c4)CC3)nn2)CC1 (stereo not drawn) [Compound 69]	64%
N#Cc1ccc(O[C@H]2CC[C@H](NC(=O)c3ccc(N4CCC5(CC4)CC(N4CCC6(CC4)COc4cc7c(cc4C6)C(=O)N(C4CCC(=O)NC4=O)C7=O)C5)nn3)CC2)cc1Cl (stereo partly drawn) [Compound 71]	71%
N#Cc1ccc(O[C@H]2CC[C@H](NC(=O)c3ccc(N4CCC(CN5CCC6(CC5)COc5cc7c(cc5C6)C(=O)N(C5CCC(=O)NC5=O)C7=O)CC4)nn3)CC2)cc1Cl (stereo partly drawn) [Compound 72]	92%

These compounds were tested against T2, AR protein (Homo sapiens, UniProt P10275) (assay: Degradation of AR protein in VCaP cells (Western blot)). Conditions: compound at 10 nM, 8 hours, read-out: Degradation rate of the AR protein in VCaP cells, 10 nM (%).
T2 construct: degradation activity of the compounds disclosed in the present disclosure on AR protein in VCaP cells; host or cells: VCaP
T2 sequence (P10275 1-920): T1 sequence (P10275 1-920 T878A) with A878T
Format: cell-based
Procedure, shortened: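 Western blot readout: AR band grayscale normalised to GAPDH, used to derive degradation rate. Lysates came from VCaP cells exposed to compound for 8 h, with solvent controls run in parallel.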

SMILES	inhibition at 0.01 µM
N#Cc1ccc(O[C@H]2CC[C@H](NC(=O)c3ccc(N4CC5(CCC(N6CCC7(CC6)COc6cc8c(cc6C7)C(=O)N(C6CCC(=O)NC6=O)C8=O)CC5)C4)nn3)CC2)cc1Cl (stereo partly drawn) [Compound 65]	50%
N#Cc1ccc(OC2CCC(NC(=O)c3ccc(N4CC5(CC(N6CCC7(CC6)COc6cc8c(cc6C7)C(=O)N(C6CCC(=O)NC6=O)C8=O)C5)C4)nn3)CC2)cc1Cl (stereo not drawn) [Compound 66]	49%
N#Cc1ccc(O[C@H]2CC[C@H](NC(=O)c3ccc(N4CCC(F)(CN5CCC6(CC5)COc5cc7c(cc5C6)C(=O)N(C5CCC(=O)NC5=O)C7=O)CC4)nn3)CC2)cc1Cl (stereo partly drawn) [Compound 67]	43%
COC1(CN2CCC3(CC2)COc2cc4c(cc2C3)C(=O)N(C2CCC(=O)NC2=O)C4=O)CCN(c2ccc(C(=O)NC3CCC(Oc4ccc(C#N)c(Cl)c4)CC3)nn2)CC1 (stereo not drawn) [Compound 69]	50%
N#Cc1ccc(O[C@H]2CC[C@H](NC(=O)c3ccc(N4CCC5(CC4)CC(N4CCC6(CC4)COc4cc7c(cc4C6)C(=O)N(C4CCC(=O)NC4=O)C7=O)C5)nn3)CC2)cc1Cl (stereo partly drawn) [Compound 71]	54%
N#Cc1ccc(O[C@H]2CC[C@H](NC(=O)c3ccc(N4CCC(CN5CCC6(CC5)COc5cc7c(cc5C6)C(=O)N(C5CCC(=O)NC5=O)C7=O)CC4)nn3)CC2)cc1Cl (stereo partly drawn) [Compound 72]	75%

Same assay, conditions: compound at 100 nM, 8 hours, read-out: Degradation rate of the AR protein in VCaP cells, 100 nM (%)

SMILES	inhibition at 0.1 µM
N#Cc1ccc(O[C@H]2CC[C@H](NC(=O)c3ccc(N4CC5(CCC(N6CCC7(CC6)COc6cc8c(cc6C7)C(=O)N(C6CCC(=O)NC6=O)C8=O)CC5)C4)nn3)CC2)cc1Cl (stereo partly drawn) [Compound 65]	71%
N#Cc1ccc(OC2CCC(NC(=O)c3ccc(N4CC5(CC(N6CCC7(CC6)COc6cc8c(cc6C7)C(=O)N(C6CCC(=O)NC6=O)C8=O)C5)C4)nn3)CC2)cc1Cl (stereo not drawn) [Compound 66]	42%
N#Cc1ccc(O[C@H]2CC[C@H](NC(=O)c3ccc(N4CCC(F)(CN5CCC6(CC5)COc5cc7c(cc5C6)C(=O)N(C5CCC(=O)NC5=O)C7=O)CC4)nn3)CC2)cc1Cl (stereo partly drawn) [Compound 67]	72%
COC1(CN2CCC3(CC2)COc2cc4c(cc2C3)C(=O)N(C2CCC(=O)NC2=O)C4=O)CCN(c2ccc(C(=O)NC3CCC(Oc4ccc(C#N)c(Cl)c4)CC3)nn2)CC1 (stereo not drawn) [Compound 69]	78%
N#Cc1ccc(O[C@H]2CC[C@H](NC(=O)c3ccc(N4CCC5(CC4)CC(N4CCC6(CC4)COc4cc7c(cc4C6)C(=O)N(C4CCC(=O)NC4=O)C7=O)C5)nn3)CC2)cc1Cl (stereo partly drawn) [Compound 71]	66%
N#Cc1ccc(O[C@H]2CC[C@H](NC(=O)c3ccc(N4CCC(CN5CCC6(CC5)COc5cc7c(cc5C6)C(=O)N(C5CCC(=O)NC5=O)C7=O)CC4)nn3)CC2)cc1Cl (stereo partly drawn) [Compound 72]	85%

The compounds below were run on LNCaP FGC cells (assay: Inhibition of proliferation of LNCaP cells (WST-8)). Conditions: Homo sapiens, LNCaP, 96 h, LNCaP FGC cells, 96 hours, WST-8 absorbance at 450 nm; read-out: IC50 for inhibiting the proliferation of LNCaP cells.
Format: cell-based
Method: The cells were cultured in a cell culture incubator with 5% CO2 at 37° C. overnight. […] On the sixth day, 96 well plates were taken out, and 20 μL of WST-8 (Beytime, C0040) reagent was added to each well.

SMILES	IC50
N#Cc1ccc(O[C@H]2CC[C@H](NC(=O)c3ccc(N4CC5(CCC(N6CCC7(CC6)COc6cc8c(cc6C7)C(=O)N(C6CCC(=O)NC6=O)C8=O)CC5)C4)nn3)CC2)cc1Cl (stereo partly drawn) [Compound 65]	0.5 µM
N#Cc1ccc(OC2CCC(NC(=O)c3ccc(N4CC5(CC(N6CCC7(CC6)COc6cc8c(cc6C7)C(=O)N(C6CCC(=O)NC6=O)C8=O)C5)C4)nn3)CC2)cc1Cl (stereo not drawn) [Compound 66]	0.42 µM
N#Cc1ccc(O[C@H]2CC[C@H](NC(=O)c3ccc(N4CCC(F)(CN5CCC6(CC5)COc5cc7c(cc5C6)C(=O)N(C5CCC(=O)NC5=O)C7=O)CC4)nn3)CC2)cc1Cl (stereo partly drawn) [Compound 67]	0.015 µM
COC1(CN2CCC3(CC2)COc2cc4c(cc2C3)C(=O)N(C2CCC(=O)NC2=O)C4=O)CCN(c2ccc(C(=O)NC3CCC(Oc4ccc(C#N)c(Cl)c4)CC3)nn2)CC1 (stereo not drawn) [Compound 69]	0.39 µM
N#Cc1ccc(O[C@H]2CC[C@H](NC(=O)c3ccc(N4CCC5(CC4)CC(N4CCC6(CC4)COc4cc7c(cc4C6)C(=O)N(C4CCC(=O)NC4=O)C7=O)C5)nn3)CC2)cc1Cl (stereo partly drawn) [Compound 71]	0.5 µM
N#Cc1ccc(O[C@H]2CC[C@H](NC(=O)c3ccc(N4CCC(CN5CCC6(CC5)COc5cc7c(cc5C6)C(=O)N(C5CCC(=O)NC5=O)C7=O)CC4)nn3)CC2)cc1Cl (stereo partly drawn) [Compound 72]	0.05 µM

The compounds below were run on VCaP cells (assay: Inhibition of proliferation of VCaP cells (WST-8)). Conditions: Homo sapiens; VCaP cells, 168 hours, WST-8 absorbance at 450 nm; read-out: IC50 for inhibiting the proliferation of VCaP cells.
Format: cell-based
Procedure, shortened: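 Proliferation was read by WST-8 on day nine. Cells were VCaP FGC, seeded at 15000 cells per well in 10% FBS DMEM and kept at 37° C with 5% CO2.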

SMILES	IC50
N#Cc1ccc(O[C@H]2CC[C@H](NC(=O)c3ccc(N4CC5(CCC(N6CCC7(CC6)COc6cc8c(cc6C7)C(=O)N(C6CCC(=O)NC6=O)C8=O)CC5)C4)nn3)CC2)cc1Cl (stereo partly drawn) [Compound 65]	0.1 µM
N#Cc1ccc(OC2CCC(NC(=O)c3ccc(N4CC5(CC(N6CCC7(CC6)COc6cc8c(cc6C7)C(=O)N(C6CCC(=O)NC6=O)C8=O)C5)C4)nn3)CC2)cc1Cl (stereo not drawn) [Compound 66]	0.53 µM
N#Cc1ccc(O[C@H]2CC[C@H](NC(=O)c3ccc(N4CCC(F)(CN5CCC6(CC5)COc5cc7c(cc5C6)C(=O)N(C5CCC(=O)NC5=O)C7=O)CC4)nn3)CC2)cc1Cl (stereo partly drawn) [Compound 67]	0.19 µM
COC1(CN2CCC3(CC2)COc2cc4c(cc2C3)C(=O)N(C2CCC(=O)NC2=O)C4=O)CCN(c2ccc(C(=O)NC3CCC(Oc4ccc(C#N)c(Cl)c4)CC3)nn2)CC1 (stereo not drawn) [Compound 69]	0.96 µM
N#Cc1ccc(O[C@H]2CC[C@H](NC(=O)c3ccc(N4CCC5(CC4)CC(N4CCC6(CC4)COc4cc7c(cc4C6)C(=O)N(C4CCC(=O)NC4=O)C7=O)C5)nn3)CC2)cc1Cl (stereo partly drawn) [Compound 71]	0.16 µM
N#Cc1ccc(O[C@H]2CC[C@H](NC(=O)c3ccc(N4CCC(CN5CCC6(CC5)COc5cc7c(cc5C6)C(=O)N(C5CCC(=O)NC5=O)C7=O)CC4)nn3)CC2)cc1Cl (stereo partly drawn) [Compound 72]	0.1 µM

From US20260234157A1, “COMPOUND AND METHOD FOR TARGETED DEGRADATION OF ANDROGEN RECEPTOR” (Gan & Lee Pharmaceuticals Co., Ltd., priority 2023, published 2026)
